Test results as given in ChEMBL document CHEMBL1201862, “PubChem BioAssay data set” (2004).
The source made the active and inactive calls.

Key:
[1] = target: T1, Carboxy-terminal domain RNA polymerase II polypeptide A small phosphatase 1 (Homo sapiens, UniProt Q9GZU7); assay: inhibitors of CTDSP1, concentration-response testing, biochemical assay, absorbance-based, actives from ultra-high-throughput screening (AID 540297); assay type: functional
T1 sequence (Q9GZU7 whole entry): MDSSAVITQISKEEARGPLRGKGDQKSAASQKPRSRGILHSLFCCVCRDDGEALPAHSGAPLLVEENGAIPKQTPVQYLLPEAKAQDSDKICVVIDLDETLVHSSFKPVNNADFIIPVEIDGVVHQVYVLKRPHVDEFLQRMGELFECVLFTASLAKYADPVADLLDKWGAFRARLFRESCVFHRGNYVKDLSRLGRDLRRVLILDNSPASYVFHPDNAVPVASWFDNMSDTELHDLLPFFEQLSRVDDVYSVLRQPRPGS

[2] = target: T2, Serine/threonine-protein phosphatase (Candida dubliniensis (strain CD36 / CBS 7987 / NCPF 3949 / NRRLY-17841) (Yeast), UniProt B9W6M3); assay: calcineurin pathway inhibitors in yeast reporter, dose response, S. cerevisiae, CDRE-lacZ, luminescence, secondary (AID 2388); assay type: functional, cell-based;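 also: yeast reporter cells carrying a calcineurin-responsive lacZ construct stimulated with calcium chloride; luminescent beta-galactosidase reporter signal in whole cells rather than isolated phosphatase activity; potency for inhibition where a drop in reporter signal means calcineurin blockade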
T2 sequence (B9W6M3 whole entry): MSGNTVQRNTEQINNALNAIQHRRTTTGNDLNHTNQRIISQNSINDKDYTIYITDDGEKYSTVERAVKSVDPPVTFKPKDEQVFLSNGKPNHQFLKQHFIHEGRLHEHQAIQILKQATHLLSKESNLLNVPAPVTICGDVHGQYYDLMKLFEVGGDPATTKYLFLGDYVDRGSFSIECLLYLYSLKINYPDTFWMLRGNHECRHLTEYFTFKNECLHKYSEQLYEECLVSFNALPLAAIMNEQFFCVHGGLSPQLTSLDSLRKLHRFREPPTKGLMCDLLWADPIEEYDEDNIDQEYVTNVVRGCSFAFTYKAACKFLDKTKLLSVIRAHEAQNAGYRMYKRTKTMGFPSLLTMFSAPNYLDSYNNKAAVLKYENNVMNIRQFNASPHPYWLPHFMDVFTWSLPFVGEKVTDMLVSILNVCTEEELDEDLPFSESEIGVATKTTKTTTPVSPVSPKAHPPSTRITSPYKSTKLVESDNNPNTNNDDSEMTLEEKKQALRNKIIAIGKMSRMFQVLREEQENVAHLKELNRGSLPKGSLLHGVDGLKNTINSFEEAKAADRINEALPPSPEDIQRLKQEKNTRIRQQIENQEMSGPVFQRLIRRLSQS

[3] = Luminescence Cell-Based Dose Retest to Confirm Inhibitors of Cancer Stem Cells. [Related pubchem assays (depositor defined):AID2717, AID2721]; assay type: functional; conditions: Homo sapiens
[4] = C. albicans growth with fluconazole, confirmation, fluorescence, retest (AID 2467); assay type: functional, cell-based
[5] = Vero E6 cell cytotoxicity, dose response, cytotoxicity control for non-replicating M. tuberculosis project, secondary assay (AID 492998); assay type: functional, VeroE6; conditions: Vero C1008
[6] = NIH-3T3 fibroblast cytotoxicity, dose response, cytotoxicity control, cell-based, fluorescence, Alamar Blue, secondary assay (AID 2327); assay type: functional;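 also: NIH-3T3 mouse fibroblasts cultured with fluconazole at 8 µg/mL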
cells = assay type: functional
[7] = HepG2 cell cytotoxicity, dose response, cytotoxicity control for non-replicating M. tuberculosis project (AID 489018); assay type: functional; conditions: Mycobacterium tuberculosis
[8] = THP-1 cell cytotoxicity, dose response, cytotoxicity control for non-replicating M. tuberculosis project (AID 489025); assay type: functional
[9] = microbe, parasite or virus in culture; assay type: functional; conditions: Mycobacterium tuberculosis
[10] = target: ATP-dependent molecular chaperone HSP82 (Candida albicans (strain WO-1) (Yeast), UniProt C4YTQ8); assay: loss of DOC-induced GRE-beta-galactosidase reporter signal, dose response, Hsp90 inhibitor project, S. cerevisiae, luminescence (AID 2400); assay type: functional, cell-based;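 also: beta-galactosidase luminescence from glucocorticoid response element reporter as proxy for Hsp90 function; inhibitor potency where signal loss means Hsp90 inhibition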
[11] = target: T3, High affinity choline transporter 1 (Homo sapiens, UniProt Q9GZV3); assay: CHT inhibitors, dose response, cell-based, 5-point CRC, membrane potential dye (AID 504840); assay type: functional
T3 sequence (Q9GZV3 whole entry): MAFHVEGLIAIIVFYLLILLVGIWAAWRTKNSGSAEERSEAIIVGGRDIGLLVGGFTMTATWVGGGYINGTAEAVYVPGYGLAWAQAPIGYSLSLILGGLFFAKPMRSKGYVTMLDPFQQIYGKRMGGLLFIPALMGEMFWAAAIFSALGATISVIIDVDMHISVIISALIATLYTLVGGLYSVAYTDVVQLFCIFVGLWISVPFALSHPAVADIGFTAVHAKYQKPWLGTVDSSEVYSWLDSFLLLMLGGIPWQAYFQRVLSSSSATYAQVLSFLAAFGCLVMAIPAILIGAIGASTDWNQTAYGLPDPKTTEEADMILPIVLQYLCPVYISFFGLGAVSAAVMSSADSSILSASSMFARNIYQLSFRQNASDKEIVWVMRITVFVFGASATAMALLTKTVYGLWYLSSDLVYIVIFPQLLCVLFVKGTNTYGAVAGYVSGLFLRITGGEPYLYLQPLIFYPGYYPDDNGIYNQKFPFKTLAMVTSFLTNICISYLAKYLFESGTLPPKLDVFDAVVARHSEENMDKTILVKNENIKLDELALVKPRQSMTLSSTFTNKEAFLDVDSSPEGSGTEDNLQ

Genome polyprotein = Genome polyprotein (dengue virus type 2, UniProt P29990); assay: Dengue-2 NS5 methyltransferase inhibitors, primary screen, biochemical, confirmation dose response (AID 588689); assay type: functional
[12] = target: T4, Zinc finger protein mex-5 (Caenorhabditis elegans, UniProt Q9XUB2); assay: MEX-5/TCR-2 RNA interaction inhibitors, dose response, biochemical, C. elegans, fluorescence polarization (AID 1960)
T4 sequence (Q9XUB2 whole entry): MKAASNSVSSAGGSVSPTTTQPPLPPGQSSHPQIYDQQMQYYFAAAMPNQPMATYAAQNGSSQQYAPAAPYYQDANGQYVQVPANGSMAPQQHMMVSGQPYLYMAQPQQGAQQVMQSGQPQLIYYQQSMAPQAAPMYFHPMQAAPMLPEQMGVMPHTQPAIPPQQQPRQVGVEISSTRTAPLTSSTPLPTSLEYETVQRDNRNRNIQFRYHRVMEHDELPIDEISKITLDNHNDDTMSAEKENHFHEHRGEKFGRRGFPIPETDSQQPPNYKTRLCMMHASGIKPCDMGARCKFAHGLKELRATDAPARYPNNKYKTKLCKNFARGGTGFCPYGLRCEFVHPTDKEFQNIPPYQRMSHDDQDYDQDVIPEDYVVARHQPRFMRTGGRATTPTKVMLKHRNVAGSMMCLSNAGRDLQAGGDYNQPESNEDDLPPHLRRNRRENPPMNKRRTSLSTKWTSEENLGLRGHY

[13] = target: T5, Endoribonuclease toxin MazF (Escherichia coli K-12, UniProt P0AE70); assay: fluorescent RNA oligo signal without MazF, dose response, counter-screen for MazEF activator project, biochemical, fluorescence, single-stranded RNase substrate (AID 588502); assay type: functional
T5 sequence (P0AE70 whole entry): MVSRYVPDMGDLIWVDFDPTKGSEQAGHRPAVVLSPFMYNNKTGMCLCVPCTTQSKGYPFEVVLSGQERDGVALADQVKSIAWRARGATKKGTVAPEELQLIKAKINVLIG

[14] = target: T6, RNA-binding protein pos-1 (Caenorhabditis elegans, UniProt G5EF15); assay: inhibitors of POS-1/mex-3 RNA binding, dose response, biochemical, fluorescence polarization (AID 1964);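 also: purified POS-1 fused to maltose binding protein made in E. coli; potency of compounds blocking POS-1 binding to fluorescent RNA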
T6 sequence (G5EF15 whole entry): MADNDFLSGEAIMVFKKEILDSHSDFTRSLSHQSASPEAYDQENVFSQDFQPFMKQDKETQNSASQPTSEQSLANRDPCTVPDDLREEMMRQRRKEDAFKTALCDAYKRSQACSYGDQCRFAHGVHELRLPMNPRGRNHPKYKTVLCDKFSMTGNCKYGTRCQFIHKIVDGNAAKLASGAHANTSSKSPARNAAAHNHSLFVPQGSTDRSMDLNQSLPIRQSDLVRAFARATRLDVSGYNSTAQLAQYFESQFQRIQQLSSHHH

[15] = target: T5, Endoribonuclease toxin MazF; assay: MazF toxin RNase activators, dose response, biochemical, fluorescence, single-stranded RNA substrate, uHTS hits (AID 588481); assay type: functional
Leucine aminopeptidase = target: T7, Leucine aminopeptidase (Plasmodium falciparum 3D7, UniProt Q8IL11); assay: P. falciparum M17LAP inhibitors, primary screen, biochemical, fluorogenic H-Leu-NHMec substrate, 1536-well (AID 1619); assay type: functional
T7 sequence (Q8IL11 whole entry): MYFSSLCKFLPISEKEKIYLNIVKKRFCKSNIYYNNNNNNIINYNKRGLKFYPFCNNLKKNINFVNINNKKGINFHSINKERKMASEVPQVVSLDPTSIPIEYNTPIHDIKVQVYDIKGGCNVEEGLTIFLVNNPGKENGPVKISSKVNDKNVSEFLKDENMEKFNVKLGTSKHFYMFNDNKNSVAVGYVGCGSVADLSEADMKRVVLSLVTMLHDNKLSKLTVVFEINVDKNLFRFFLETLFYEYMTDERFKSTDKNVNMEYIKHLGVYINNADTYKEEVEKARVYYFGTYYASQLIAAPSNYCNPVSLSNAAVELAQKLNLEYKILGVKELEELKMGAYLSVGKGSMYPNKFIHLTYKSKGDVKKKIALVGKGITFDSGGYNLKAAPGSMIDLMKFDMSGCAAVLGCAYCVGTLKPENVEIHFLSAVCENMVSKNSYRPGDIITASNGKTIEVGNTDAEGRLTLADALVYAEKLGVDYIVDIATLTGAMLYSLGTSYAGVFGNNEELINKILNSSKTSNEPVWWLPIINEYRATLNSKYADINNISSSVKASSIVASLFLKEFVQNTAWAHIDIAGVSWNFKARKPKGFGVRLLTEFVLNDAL

Estrogen receptor = target: T8, Estrogen receptor (Homo sapiens, UniProt P03372);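 also: potency for inhibiting coactivator peptide recruitment to the receptor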
T8 sequence (P03372 whole entry): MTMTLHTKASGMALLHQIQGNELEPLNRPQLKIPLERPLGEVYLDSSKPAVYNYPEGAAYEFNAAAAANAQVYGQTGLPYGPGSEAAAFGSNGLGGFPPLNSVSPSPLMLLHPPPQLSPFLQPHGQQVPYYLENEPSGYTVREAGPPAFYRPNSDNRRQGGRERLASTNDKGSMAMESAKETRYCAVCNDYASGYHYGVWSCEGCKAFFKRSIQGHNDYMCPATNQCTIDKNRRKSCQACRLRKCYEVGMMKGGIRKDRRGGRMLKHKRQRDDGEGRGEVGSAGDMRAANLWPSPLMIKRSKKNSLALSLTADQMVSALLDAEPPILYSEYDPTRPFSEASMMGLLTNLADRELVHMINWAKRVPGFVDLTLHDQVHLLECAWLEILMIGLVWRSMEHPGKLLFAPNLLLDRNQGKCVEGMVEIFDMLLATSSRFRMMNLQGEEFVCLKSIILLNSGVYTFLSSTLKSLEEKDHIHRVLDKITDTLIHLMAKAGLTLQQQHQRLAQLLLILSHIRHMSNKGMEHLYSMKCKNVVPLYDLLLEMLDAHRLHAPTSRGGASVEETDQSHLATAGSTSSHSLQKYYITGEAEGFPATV
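For AC50 in this document: cells exposed to compound for roughly 70 hours or longer before luminescence read.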

ATP-dependent molecular chaperone HSP82, sequence (C4YTQ8 whole entry): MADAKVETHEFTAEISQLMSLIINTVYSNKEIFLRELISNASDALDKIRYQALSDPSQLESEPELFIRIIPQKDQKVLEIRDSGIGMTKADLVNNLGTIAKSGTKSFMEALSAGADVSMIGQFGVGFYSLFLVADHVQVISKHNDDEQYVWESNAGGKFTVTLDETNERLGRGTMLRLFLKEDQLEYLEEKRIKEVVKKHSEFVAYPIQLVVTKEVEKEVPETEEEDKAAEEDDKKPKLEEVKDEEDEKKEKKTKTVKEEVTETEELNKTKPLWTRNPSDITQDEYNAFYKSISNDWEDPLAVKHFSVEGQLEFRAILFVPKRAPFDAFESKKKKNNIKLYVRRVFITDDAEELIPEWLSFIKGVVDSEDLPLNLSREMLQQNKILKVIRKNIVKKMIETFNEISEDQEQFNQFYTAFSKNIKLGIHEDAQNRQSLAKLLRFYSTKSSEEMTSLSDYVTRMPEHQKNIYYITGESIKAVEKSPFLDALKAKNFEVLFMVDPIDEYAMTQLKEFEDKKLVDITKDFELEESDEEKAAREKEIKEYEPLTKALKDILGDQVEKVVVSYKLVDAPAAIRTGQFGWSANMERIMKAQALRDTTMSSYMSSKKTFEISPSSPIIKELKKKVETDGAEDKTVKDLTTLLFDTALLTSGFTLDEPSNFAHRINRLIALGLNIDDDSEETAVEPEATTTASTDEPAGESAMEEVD
Genome polyprotein, sequence (P29990 2492-3391 limits assumed): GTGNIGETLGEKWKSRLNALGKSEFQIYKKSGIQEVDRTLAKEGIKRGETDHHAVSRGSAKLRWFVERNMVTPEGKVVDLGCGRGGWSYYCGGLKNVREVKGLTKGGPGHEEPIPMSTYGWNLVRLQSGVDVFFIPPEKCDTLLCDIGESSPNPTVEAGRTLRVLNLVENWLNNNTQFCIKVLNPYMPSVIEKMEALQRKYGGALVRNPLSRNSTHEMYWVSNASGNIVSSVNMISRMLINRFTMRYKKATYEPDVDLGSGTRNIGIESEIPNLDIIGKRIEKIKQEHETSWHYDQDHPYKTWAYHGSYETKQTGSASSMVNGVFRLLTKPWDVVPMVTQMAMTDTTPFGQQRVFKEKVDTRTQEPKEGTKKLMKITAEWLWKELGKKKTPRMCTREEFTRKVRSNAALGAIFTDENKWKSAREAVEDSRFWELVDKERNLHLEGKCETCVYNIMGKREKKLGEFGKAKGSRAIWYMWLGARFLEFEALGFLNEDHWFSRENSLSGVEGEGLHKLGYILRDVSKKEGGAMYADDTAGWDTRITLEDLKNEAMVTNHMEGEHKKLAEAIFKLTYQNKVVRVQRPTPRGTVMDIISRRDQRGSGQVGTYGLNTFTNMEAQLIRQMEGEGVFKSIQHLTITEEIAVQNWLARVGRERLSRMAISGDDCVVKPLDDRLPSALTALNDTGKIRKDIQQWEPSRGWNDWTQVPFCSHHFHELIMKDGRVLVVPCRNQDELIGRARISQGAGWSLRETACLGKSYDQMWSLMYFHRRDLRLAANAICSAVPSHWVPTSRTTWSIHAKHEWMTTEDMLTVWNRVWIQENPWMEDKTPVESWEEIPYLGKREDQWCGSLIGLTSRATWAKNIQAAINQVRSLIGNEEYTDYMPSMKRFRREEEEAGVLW

With O=C(NNC(=O)c1cc2cc3ccccc3nc2s1)c1ccc(F)cc1 the IC50 [1] was 4.28 µM (active).

With CC1(O)CC(c2ccc(Cl)cc2)=NN1C(=O)c1ccc([N+](=O)[O-])cc1 (configuration not stated) the EC50 [2] was > 180 µM (inactive), the AC50 [3] was 3.86 µM (active) and the EC50 [4] was 0.404 µM (active). For the same compound, the CC50 [5] was 19.5 µM (active), the EC50 [6] was > 150 µM (inconclusive) and the IC50 (cells) was 14.2 µM (active). For the same compound, the CC50 [7] was > 20 µM (active), the CC50 [8] was 15.5 µM (active) and the CC50 [9] was 24.7 µM (active). The EC50 [10] was 12.5 µM (active).

For O=C(NCc1ccccc1)c1sc(=S)n2c1[nH]c(=O)c1ccccc12, the EC50 [2] was > 180 µM (inactive), the EC50 [4] was 0.706 µM (active) and the EC50 [6] was > 150 µM (inactive). For the same compound, the IC50 [11] was 22 µM (active), the EC50 [10] was 6.61 µM (active) and the IC50 (Genome polyprotein) was 77 µM (active).

In the case of O=C(COc1cccc2ccccc12)Nc1cc(Cl)ccc1C(=O)O, the IC50 (Genome polyprotein) is reported as 40.5 µM (active).

With O=C(O)Cc1ccc(NC(=O)c2ccc3c(c2)C(=O)N(Cc2ccco2)C3=O)cc1 the IC50 [1] was 3.79 µM (active).

For CC(=O)c1sc2nc(-c3cccs3)cc(C(F)(F)F)c2c1N, the EC50 [12] was > 300 µM (not active), the EC50 [13] was 22.3 µM (inactive) and the EC50 [14] was 45.9 µM (active). The EC50 [15] was > 99 µM (inactive).

In the case of CCOC(=O)c1c(NC(=O)C2C3C=CC(C3)C2(C)C(=O)O)sc2c1CCCC2 (configuration not stated), the IC50 (Leucine aminopeptidase) is reported as 8.1 µM (active) and the IC50 [1] is reported as 16.1 µM (active).

In the case of COc1ccc(OCCC(=O)OCC(=O)NCc2ccco2)cc1, the IC50 (Estrogen receptor) is reported as 33.3 µM (not active) and the IC50 [1] is reported as 9.12 µM (active).
